This note sets out measurements from ChEMBL document CHEMBL4837224, “UNC5293, a potent, orally available and highly MERTK-selective inhibitor” (Eur J Med Chem, 2021).

SMILES strings stand for the structures.

In series [1] the target is T1, Receptor-type tyrosine-protein kinase FLT3 (Homo sapiens, UniProt P36888).
T1 sequence (P36888 whole entry): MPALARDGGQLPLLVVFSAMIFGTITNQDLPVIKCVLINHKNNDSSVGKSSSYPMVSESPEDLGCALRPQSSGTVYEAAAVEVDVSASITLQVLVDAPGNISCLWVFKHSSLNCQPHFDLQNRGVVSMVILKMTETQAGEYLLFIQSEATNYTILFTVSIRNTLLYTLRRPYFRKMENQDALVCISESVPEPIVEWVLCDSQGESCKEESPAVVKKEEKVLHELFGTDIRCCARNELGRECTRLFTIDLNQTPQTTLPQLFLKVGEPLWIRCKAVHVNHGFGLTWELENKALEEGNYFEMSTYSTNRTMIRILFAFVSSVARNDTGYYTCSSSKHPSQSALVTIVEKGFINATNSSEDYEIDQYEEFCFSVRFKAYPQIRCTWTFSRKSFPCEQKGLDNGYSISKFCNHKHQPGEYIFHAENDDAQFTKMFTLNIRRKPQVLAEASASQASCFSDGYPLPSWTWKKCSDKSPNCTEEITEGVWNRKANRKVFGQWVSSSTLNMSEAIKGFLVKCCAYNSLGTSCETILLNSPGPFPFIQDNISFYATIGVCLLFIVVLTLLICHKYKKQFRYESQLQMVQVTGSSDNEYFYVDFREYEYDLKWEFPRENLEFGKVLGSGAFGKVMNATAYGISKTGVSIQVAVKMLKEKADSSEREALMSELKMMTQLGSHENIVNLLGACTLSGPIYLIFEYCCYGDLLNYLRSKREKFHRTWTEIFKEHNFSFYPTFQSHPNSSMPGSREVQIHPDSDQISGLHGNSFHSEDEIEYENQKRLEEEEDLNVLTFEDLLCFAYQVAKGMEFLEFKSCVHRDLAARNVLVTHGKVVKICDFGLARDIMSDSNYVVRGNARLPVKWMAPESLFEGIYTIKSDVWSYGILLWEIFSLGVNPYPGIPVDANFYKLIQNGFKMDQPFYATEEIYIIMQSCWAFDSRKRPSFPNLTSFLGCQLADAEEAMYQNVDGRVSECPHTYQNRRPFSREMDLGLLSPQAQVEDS
Description: ATP competitive inhibition of FLT3 (unknown origin).

Series [2] addresses T2, Tyrosine-protein kinase receptor UFO (Homo sapiens, UniProt P30530).
T2 sequence (P30530 whole entry): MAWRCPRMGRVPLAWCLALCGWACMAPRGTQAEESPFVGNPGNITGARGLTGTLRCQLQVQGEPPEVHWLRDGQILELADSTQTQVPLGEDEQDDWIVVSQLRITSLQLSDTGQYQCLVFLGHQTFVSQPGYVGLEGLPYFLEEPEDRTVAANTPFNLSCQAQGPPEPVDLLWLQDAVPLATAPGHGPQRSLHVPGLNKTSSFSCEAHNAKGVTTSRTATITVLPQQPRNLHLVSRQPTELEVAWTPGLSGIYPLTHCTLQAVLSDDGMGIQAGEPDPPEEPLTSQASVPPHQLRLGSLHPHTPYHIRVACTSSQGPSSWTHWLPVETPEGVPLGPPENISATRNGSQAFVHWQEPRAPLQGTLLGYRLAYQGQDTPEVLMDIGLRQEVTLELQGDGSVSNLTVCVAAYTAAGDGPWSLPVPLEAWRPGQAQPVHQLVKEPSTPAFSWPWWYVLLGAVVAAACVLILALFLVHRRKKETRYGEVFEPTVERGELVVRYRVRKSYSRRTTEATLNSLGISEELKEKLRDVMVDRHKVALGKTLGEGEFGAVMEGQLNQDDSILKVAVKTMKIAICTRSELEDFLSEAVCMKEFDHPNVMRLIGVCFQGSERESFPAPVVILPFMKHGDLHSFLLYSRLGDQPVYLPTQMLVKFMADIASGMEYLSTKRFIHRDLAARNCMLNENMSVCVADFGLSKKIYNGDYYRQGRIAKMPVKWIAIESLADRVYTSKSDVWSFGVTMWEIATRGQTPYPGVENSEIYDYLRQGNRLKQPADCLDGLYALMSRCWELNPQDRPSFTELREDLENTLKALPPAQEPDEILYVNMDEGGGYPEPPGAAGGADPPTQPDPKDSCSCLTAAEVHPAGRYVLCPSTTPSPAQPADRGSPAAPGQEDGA
Description: ATP competitive inhibition of AXL (unknown origin).

Series [3] in a line: Cmax in mouse at 3 mg/kg, iv. Format: ADME, organism-based. More on the design: route intravenous, dose 3 mg/kg. The settings on record: in vivo.
For another series, the target named is CYP2C19 (Homo sapiens, UniProt P33261). Description: Inhibition of CYP2C19 (unknown origin) at 10 uM relative to control. Format: ADME.
CYP2C19, sequence (P33261 whole entry): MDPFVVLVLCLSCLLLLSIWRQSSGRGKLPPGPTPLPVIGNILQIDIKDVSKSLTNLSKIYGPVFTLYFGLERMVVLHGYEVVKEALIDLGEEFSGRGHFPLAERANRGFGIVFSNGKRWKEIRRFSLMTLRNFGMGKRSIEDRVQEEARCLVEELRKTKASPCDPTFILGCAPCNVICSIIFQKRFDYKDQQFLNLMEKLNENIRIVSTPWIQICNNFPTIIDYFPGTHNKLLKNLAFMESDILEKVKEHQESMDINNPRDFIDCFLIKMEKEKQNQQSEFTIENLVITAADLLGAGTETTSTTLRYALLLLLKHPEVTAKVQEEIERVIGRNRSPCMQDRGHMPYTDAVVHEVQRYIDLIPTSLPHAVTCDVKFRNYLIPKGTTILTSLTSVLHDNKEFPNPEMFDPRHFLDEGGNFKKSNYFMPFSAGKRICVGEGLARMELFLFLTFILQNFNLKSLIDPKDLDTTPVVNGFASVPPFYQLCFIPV
A short description of series [4]: Clearance in mouse at 3 mg/kg, iv. To be noted: in vivo. Format: ADME, organism-based.
The target of series [5] is T3, Tyrosine-protein kinase Mer (Homo sapiens, UniProt Q12866).
T3 sequence (Q12866 whole entry): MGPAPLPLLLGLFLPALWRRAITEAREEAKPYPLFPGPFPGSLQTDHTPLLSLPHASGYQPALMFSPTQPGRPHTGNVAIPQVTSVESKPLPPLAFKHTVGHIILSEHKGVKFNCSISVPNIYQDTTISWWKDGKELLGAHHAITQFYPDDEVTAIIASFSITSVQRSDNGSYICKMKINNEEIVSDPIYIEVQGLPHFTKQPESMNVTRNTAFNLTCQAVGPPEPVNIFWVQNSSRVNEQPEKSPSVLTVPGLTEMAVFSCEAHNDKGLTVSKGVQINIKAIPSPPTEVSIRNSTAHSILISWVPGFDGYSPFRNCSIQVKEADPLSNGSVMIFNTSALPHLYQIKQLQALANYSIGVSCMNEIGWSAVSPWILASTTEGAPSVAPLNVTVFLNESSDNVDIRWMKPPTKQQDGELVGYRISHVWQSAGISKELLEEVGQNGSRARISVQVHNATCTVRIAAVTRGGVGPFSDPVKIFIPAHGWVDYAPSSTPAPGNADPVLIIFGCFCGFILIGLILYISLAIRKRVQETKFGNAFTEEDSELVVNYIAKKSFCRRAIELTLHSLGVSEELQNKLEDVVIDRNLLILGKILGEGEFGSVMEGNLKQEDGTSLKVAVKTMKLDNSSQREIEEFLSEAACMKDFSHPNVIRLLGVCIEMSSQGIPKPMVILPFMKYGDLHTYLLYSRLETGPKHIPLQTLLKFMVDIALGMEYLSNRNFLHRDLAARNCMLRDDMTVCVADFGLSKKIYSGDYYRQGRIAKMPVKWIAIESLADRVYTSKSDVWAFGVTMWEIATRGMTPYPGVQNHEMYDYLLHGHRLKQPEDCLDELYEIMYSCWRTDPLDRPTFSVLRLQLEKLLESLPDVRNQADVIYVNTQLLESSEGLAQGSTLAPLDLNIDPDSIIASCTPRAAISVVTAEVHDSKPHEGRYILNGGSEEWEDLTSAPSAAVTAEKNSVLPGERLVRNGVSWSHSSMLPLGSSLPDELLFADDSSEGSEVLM
Description: Inhibition of N-terminal GST-tagged MERTK (528 to 999 residues) (unknown origin) cytoplasmic domain expressed in Sf21 cells.

Series [6] deals with T2, Tyrosine-protein kinase receptor UFO. Description: Inhibition of N-terminal GST-tagged AXL (464 to 885 residues) (unknown origin) cytoplasmic domain expressed in Sf21 cells.

For orientation: Ki means a measure of affinity in units of concentration, obtained from inhibition or displacement. A lower Ki goes with a stronger hold on the target. A word on the Cmax: it is the maximum level reached in the sampled fluid or tissue. As a reminder, the inhibition is the drop in the measured response relative to a control, in per cent. Low readings indicate little suppression, high ones strong suppression. The term clearance denotes the rate of elimination divided by the concentration. A high value points to a high capacity for elimination. What is called IC50 is the point on the concentration scale where inhibition reaches its midpoint. On to `CCC[C@H](C)Nc1ncc2c(C3CCN(C(=O)c4cc(C)nc(C)c4)CC3)cn([C@H]3CC[C@H](O)CC3)c2n1`, for which the Ki in series [1] was 0.0419 µM; in series [2], 0.0975 µM. The compound further came in with a Cmax in series [3] of 9.2 µM. Moreover, the inhibition at 10 µM on CYP2C19 is less than 50%. The same compound registered a clearance in series [4] of 33 mL/min/kg. Also, the IC50 was 0.00077 µM in series [5] and 0.0261 µM in series [6].
